This note sets out measurements from paper PMC10122656, “Siglec-6 mediates the uptake of extracellular vesicles through a noncanonical glycolipid binding pocket” (Nature Communications, 2023).

Several values for one entry are separate records, joined by “and”; a condition that tells them apart may be missing. Equal entries are not always repeated.

Holding throughout (experiment): Cell assay (liposome/EV binding, flow cytometry)
What all share (format): cell-based

For experiment [1], the target named is T1, Siglec-15 WT CHO cells (Homo sapiens, UniProt Q6ZMC9, K274L).
T1 construct: expressed in transfected cells
T1 sequence (Q6ZMC9 20-328 K274L): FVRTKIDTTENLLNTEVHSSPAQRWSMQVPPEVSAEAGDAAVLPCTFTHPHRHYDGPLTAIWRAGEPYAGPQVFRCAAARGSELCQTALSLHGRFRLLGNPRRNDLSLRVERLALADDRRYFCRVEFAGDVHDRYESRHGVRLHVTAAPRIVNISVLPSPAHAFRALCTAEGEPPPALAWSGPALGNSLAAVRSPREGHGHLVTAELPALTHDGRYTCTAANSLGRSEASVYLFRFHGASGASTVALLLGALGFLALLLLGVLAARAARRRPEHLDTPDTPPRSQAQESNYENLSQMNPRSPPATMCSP
As to conditions: Sig-15 WT; 3 mol% ganglioside liposomes; replicates. A digest of the protocol: (§1)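 CHO cells expressing the indicated Siglec (wild-type or R-to-A mutant) were incubated 30 min at 37 °C with 50 µM fluorescent DSPC/cholesterol/PEG-DSPE liposomes (~130 nm, Siglec ligand-bearing) or 50 µg/mL EVs in DMEM F12 5% FBS. After washing and anti-Siglec staining on ice, binding was measured by flow cytometry on Siglec-positive gated cells.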

The target of experiment [2] is T2, Siglec-11 R120A CHO cells (Homo sapiens, UniProt Q96RL6, R132A).
T2 construct: expressed in transfected cells
T2 sequence (Q96RL6 28-698 R132A): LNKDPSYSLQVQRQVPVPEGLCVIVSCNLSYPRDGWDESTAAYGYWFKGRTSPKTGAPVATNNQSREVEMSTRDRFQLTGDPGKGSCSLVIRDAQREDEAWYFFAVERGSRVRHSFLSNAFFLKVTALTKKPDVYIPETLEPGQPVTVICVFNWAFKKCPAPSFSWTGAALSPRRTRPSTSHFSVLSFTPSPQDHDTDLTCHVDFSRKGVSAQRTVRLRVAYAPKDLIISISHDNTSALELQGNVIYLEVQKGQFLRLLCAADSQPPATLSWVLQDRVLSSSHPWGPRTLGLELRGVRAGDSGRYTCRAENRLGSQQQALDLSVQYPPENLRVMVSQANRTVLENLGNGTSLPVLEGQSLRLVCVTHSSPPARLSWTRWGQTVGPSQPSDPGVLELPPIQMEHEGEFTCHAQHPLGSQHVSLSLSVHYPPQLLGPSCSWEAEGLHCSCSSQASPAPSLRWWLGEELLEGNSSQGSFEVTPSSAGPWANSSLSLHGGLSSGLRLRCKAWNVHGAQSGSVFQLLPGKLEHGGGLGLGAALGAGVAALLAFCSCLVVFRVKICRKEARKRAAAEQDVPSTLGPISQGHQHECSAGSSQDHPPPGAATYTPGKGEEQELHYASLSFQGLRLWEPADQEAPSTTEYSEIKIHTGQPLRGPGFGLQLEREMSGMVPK
Particulars: Sig-11 R120A; 3 mol% ganglioside liposomes; replicates. Put shortly: as §1

The target of experiment [3] is T3, CD22 R120A CHO cells (Homo sapiens, UniProt P20273, R120A).
T3 construct: expressed in transfected cells
T3 sequence (P20273 20-847 R120A): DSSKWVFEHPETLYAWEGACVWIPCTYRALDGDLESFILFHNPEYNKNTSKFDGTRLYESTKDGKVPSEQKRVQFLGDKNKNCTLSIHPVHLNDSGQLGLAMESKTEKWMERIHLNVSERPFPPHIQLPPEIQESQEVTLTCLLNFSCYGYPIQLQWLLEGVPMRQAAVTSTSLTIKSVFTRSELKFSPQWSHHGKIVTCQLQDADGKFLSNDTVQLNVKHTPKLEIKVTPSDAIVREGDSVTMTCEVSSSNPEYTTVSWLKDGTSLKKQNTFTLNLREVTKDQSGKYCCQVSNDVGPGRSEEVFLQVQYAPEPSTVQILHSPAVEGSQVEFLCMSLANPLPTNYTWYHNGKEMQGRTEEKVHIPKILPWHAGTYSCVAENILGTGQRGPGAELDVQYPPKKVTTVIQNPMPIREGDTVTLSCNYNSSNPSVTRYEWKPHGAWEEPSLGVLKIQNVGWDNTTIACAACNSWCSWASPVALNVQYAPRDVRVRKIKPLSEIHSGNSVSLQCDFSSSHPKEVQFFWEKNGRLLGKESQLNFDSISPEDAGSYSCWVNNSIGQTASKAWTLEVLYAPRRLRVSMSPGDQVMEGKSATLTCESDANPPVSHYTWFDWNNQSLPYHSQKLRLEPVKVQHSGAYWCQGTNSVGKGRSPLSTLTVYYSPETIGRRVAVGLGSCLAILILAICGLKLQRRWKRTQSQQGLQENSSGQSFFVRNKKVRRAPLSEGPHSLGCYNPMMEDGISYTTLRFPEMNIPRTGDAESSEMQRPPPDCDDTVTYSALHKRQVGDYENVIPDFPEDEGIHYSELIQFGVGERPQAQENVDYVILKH
As to conditions: 3 mol% ganglioside liposomes, replicates. Put shortly: as §1

In the case of GD1b, the “log10(MFI AF647) of GLL relative to log10(MFI AF647) of the same GLL against UT CHO cells (Fig. 2a)” value was -0.14 (2×) and -0.12 (2×) in experiment [1]; -0.11 (2×) and -0.12 (2×) in experiment [2]; 0.03 and 0.02 and -0.01 and 0.01 in experiment [3].
As for GM1, the “log10(MFI AF647) of GLL relative to log10(MFI AF647) of the same GLL against UT CHO cells (Fig. 2a)” value in experiment [1] is -0.21 and -0.2 and -0.17 (2×); in experiment [2], 0.1 and 0.05 and 0.07 and 0.13; in experiment [3] it was 0.06 and 0.04 and -0.02 and 0.03.
Take GD3: the “log10(MFI AF647) of GLL relative to log10(MFI AF647) of the same GLL against UT CHO cells (Fig. 2a)” value in experiment [1] was -0.02 and -0.01 and 0 and -0.03; in experiment [2], -0.1 and -0.11 and -0.12 (2×); in experiment [3], 0.09 and 0.1 (2×) and 0.11.
For GM3, the “log10(MFI AF647) of GLL relative to log10(MFI AF647) of the same GLL against UT CHO cells (Fig. 2a)” value is -0.12 and -0.09 (2×) and -0.1 in experiment [1]; -0.13 (3×) and -0.12 in experiment [2]; -0.15 and -0.16 and -0.17 and -0.18 in experiment [3].
With GM2, the “log10(MFI AF647) of GLL relative to log10(MFI AF647) of the same GLL against UT CHO cells (Fig. 2a)” value was -0.07 and -0.05 and -0.03 (2×) in experiment [1]; -0.07 (2×) and -0.06 (2×) in experiment [2]; 0.1 (2×) and 0.12 and 0.08 in experiment [3].
Consider GM4, for which the “log10(MFI AF647) of GLL relative to log10(MFI AF647) of the same GLL against UT CHO cells (Fig. 2a)” value was -0.1 and -0.08 (2×) and -0.07 in experiment [1]; -0.11 (2×) and -0.1 (2×) in experiment [2]; 0.11 and 0.12 and 0.09 and 0.1 in experiment [3].
For GQ1b, the “log10(MFI AF647) of GLL relative to log10(MFI AF647) of the same GLL against UT CHO cells (Fig. 2a)” value is -0.13 and -0.12 (2×) and -0.17 in experiment [1]; -0.19 (2×) and -0.22 and -0.18 in experiment [2]; -0.05 and -0.03 and -0.04 and -0.06 in experiment [3].
Consider GD1a, for which the “log10(MFI AF647) of GLL relative to log10(MFI AF647) of the same GLL against UT CHO cells (Fig. 2a)” value was -0.08 and -0.06 and -0.07 (2×) in experiment [1]; -0.11 and -0.13 and -0.12 (2×) in experiment [2]; 0.09 and 0.1 and 0.05 and 0.08 in experiment [3].
Consider GT1b, for which the “log10(MFI AF647) of GLL relative to log10(MFI AF647) of the same GLL against UT CHO cells (Fig. 2a)” value in experiment [1] is -0.04 (3×) and -0.01; in experiment [2], -0.17 (2×) and -0.16 and -0.19; in experiment [3], 0.05 and 0.04 (2×) and 0.06.
